Test results taken from the supplement of paper PMC4862054.

System: Hs578T
Assay: drug sensitivity score (DSS), CellTiter-Glo (DSS (AUC-based score)); higher = stronger drug effect (viability inhibition or cytotoxicity); extreme values may be limits of the assay
Conditions: incubation time: 72 h
Method in brief: (§1)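 The drug sensitivity score reflects the area under a fitted dose-response curve. To obtain it, breast cancer cells in 20 µl suspension were seeded into 384-well plates containing compound at 5 concentrations, 10-fold apart over a compound-specific 10,000-fold range, and incubated 72 h. CellTox Green fluorescence (485/520 nm) was read first and CellTiter-Glo luminescence second, after 10 min at room temperature. Each plate was normalised to 0.1 % DMSO and a positive kill control.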

| SMILES | drug sensitivity score |
| --- | --- |
| CNC(=O)c1cccc(-c2ccc3c(N4CCOC[C@@H]4C)nc(N4CCOC[C@@H]4C)nc3n2)c1 [AZD2014] | 11.4 |
| CN(C)c1nc(N(C)C)nc(N(C)C)n1 [Altretamine] | 0 |
| Nc1cc(C(F)(F)F)c(-c2cc(N3CCOCC3)nc(N3CCOCC3)n2)cn1 [Buparlisib] | 1.39 |
| CNC(=O)c1ccc(N2C(=S)N(c3ccc(C#N)c(C(F)(F)F)c3)C(=O)C2(C)C)cc1F [Enzalutamide] | 0 |
| CCOC(=O)CCNc1cc(N2CCc3ccccc3CC2)nc(-c2ccccn2)n1 [GSK-J4] | 10.4 |
| Cc1cc(Nc2cc(CN3CCOCC3)c3nc(C)c(Cc4ccc(Cl)cc4F)n3n2)n[nH]1 [Gandotinib] | 6.39 |
| COc1cc2ncnc(Nc3ccc(F)c(Cl)c3)c2cc1OCCCN1CCOCC1 [Gefitinib] | 0 |
| CCc1c2c(nc3ccc(OC(=O)N4CCC(N5CCCCC5)CC4)cc13)-c1cc3c(c(=O)n1C2)COC(=O)[C@]3(O)CC [Irinotecan] | 0 |
| COC(=O)c1ccc2c(c1)NC(=O)/C2=C(\Nc1ccc(N(C)C(=O)CN2CCN(C)CC2)cc1)c1ccccc1 [Nintedanib] | 1.11 |
| CNC(=O)c1ccc(N2C(=S)N(c3ccc(C#N)c(C(F)(F)F)c3)C(=O)C23CCC3)cc1F [RD162] | 0 |
| COc1cc2c(NC3CCN(C(C)C)CC3)nc(N3CCC(F)(F)CC3)nc2cc1OCCCN1CCCC1 [UNC0642] | 0 |

System: MCF-10A
Assay: as above
Conditions: incubation time: 72 h
Method in brief: as §1

| SMILES | drug sensitivity score |
| --- | --- |
| CCn1c(-c2nonc2N)nc2cnc(Oc3cccc(NC(=O)c4ccc(OCCN5CCOCC5)cc4)c3)cc21 | 6.73 |
| N#Cc1ccc(COC[C@H]2O[C@@H](n3c(NCc4ccc(Cl)c(Cl)c4)nc4c(N)ncnc43)[C@H](O)[C@@H]2O)cc1 | 1.78 |
| COc1cc(O)c2c(c1)/C=C/C[C@H](O)[C@H](O)C(=O)/C=C\C[C@H](C)OC2=O [(5Z)-7-Oxozeaenol] | 9.62 |
| COc1cc(OC2CCN(C)CC2)ccc1Nc1ncc2c(n1)n(C1CCCC1)c(=O)n2C [AZ 3146] | 2.22 |
| CNC(=O)c1cccc(-c2ccc3c(N4CCOC[C@@H]4C)nc(N4CCOC[C@@H]4C)nc3n2)c1 [AZD2014] | 10.3 |
| CN(C)c1nc(N(C)C)nc(N(C)C)n1 [Altretamine] | 0 |
| Nc1cc(C(F)(F)F)c(-c2cc(N3CCOCC3)nc(N3CCOCC3)n2)cn1 [Buparlisib] | 9.62 |
| CNC(=O)c1ccc(N2C(=S)N(c3ccc(C#N)c(C(F)(F)F)c3)C(=O)C2(C)C)cc1F [Enzalutamide] | 0 |
| CCOC(=O)CCNc1cc(N2CCc3ccccc3CC2)nc(-c2ccccn2)n1 [GSK-J4] | 12.1 |
| Cc1cc(Nc2cc(CN3CCOCC3)c3nc(C)c(Cc4ccc(Cl)cc4F)n3n2)n[nH]1 [Gandotinib] | 3.4 |
| COc1cc2ncnc(Nc3ccc(F)c(Cl)c3)c2cc1OCCCN1CCOCC1 [Gefitinib] | 17.7 |
| CCc1c2c(nc3ccc(OC(=O)N4CCC(N5CCCCC5)CC4)cc13)-c1cc3c(c(=O)n1C2)COC(=O)[C@]3(O)CC [Irinotecan] | 1.93 |
| COC(=O)c1ccc2c(c1)NC(=O)/C2=C(\Nc1ccc(N(C)C(=O)CN2CCN(C)CC2)cc1)c1ccccc1 [Nintedanib] | 8.49 |
| CNC(=O)c1ccc(N2C(=S)N(c3ccc(C#N)c(C(F)(F)F)c3)C(=O)C23CCC3)cc1F [RD162] | 0 |
| COc1cc2c(NC3CCN(C(C)C)CC3)nc(N3CCC(F)(F)CC3)nc2cc1OCCCN1CCCC1 [UNC0642] | 3.66 |

System: MDA-MB-231
Assay: as above
Conditions: incubation time: 72 h
Method in brief: as §1

| SMILES | drug sensitivity score |
| --- | --- |
| CCn1c(-c2nonc2N)nc2cnc(Oc3cccc(NC(=O)c4ccc(OCCN5CCOCC5)cc4)c3)cc21 | 3.83 |
| N#Cc1ccc(COC[C@H]2O[C@@H](n3c(NCc4ccc(Cl)c(Cl)c4)nc4c(N)ncnc43)[C@H](O)[C@@H]2O)cc1 | 0 |
| COc1cc(O)c2c(c1)/C=C/C[C@H](O)[C@H](O)C(=O)/C=C\C[C@H](C)OC2=O [(5Z)-7-Oxozeaenol] | 9.42 |
| COc1cc(OC2CCN(C)CC2)ccc1Nc1ncc2c(n1)n(C1CCCC1)c(=O)n2C [AZ 3146] | 0 |
| CNC(=O)c1cccc(-c2ccc3c(N4CCOC[C@@H]4C)nc(N4CCOC[C@@H]4C)nc3n2)c1 [AZD2014] | 8.36 |
| CN(C)c1nc(N(C)C)nc(N(C)C)n1 [Altretamine] | 0 |
| Nc1cc(C(F)(F)F)c(-c2cc(N3CCOCC3)nc(N3CCOCC3)n2)cn1 [Buparlisib] | 3 |
| CNC(=O)c1ccc(N2C(=S)N(c3ccc(C#N)c(C(F)(F)F)c3)C(=O)C2(C)C)cc1F [Enzalutamide] | 0 |
| CCOC(=O)CCNc1cc(N2CCc3ccccc3CC2)nc(-c2ccccn2)n1 [GSK-J4] | 14 |
| Cc1cc(Nc2cc(CN3CCOCC3)c3nc(C)c(Cc4ccc(Cl)cc4F)n3n2)n[nH]1 [Gandotinib] | 7.43 |
| COc1cc2ncnc(Nc3ccc(F)c(Cl)c3)c2cc1OCCCN1CCOCC1 [Gefitinib] | 0 |
| CCc1c2c(nc3ccc(OC(=O)N4CCC(N5CCCCC5)CC4)cc13)-c1cc3c(c(=O)n1C2)COC(=O)[C@]3(O)CC [Irinotecan] | 0 |
